One assay concerns human platelets. The experiment in a line: PGH2-evoked platelet aggregation. Format: cell-based. To be noted: PGH2 100 ng; PBT-3 at various doses before PGH2. The method, then: Venous blood was obtained from healthy human subjects who had not taken NSAID's for at least two weeks. Blood was drawn into plastic syringes containing ACD. It was immediately centrifuged at 23° at 200×g for 15 min. The platelet rich plasma was transferred into fresh plastic tubes and centrifuged at 400×g for 5 min. The supernatant was discarded and the platelet sediment was resuspended in fresh medium containing NaCl (137 mM), KCl (1 mM), NaH2PO4, glucose (5.5 mM), HEPES (20 mM) and CaCl2 (1 mM) and allowed to stand at room temperature for 30 min. A platelet count was made, which determined the volume of platelet suspension needed to make up 350×10^6 cells for each measurement. The aliquot was diluted with medium to make 0.5 ml/assay/cuvette. […]
0.5 ml of platelet suspension was added to siliconized glass tubes (four at a time) and heated with magnetic stirring to 37° for 1 min in a platelet aggregometer (PAP-4C). […] The response was recorded for the next 5 min. […] In experiments where the conversion of tritiated PGH2 was to be monitored, the procedure described above was repeated with tritiated PGH2 instead of unlabeled PGH2. After extraction of the sample as described above, the radiolabeled compounds were analyzed by TLC. Dose response curves for varying amounts of test compounds were generated and the data expressed as % inhibition of collagen-induced platelet aggregation. […]

For another assay, the target named is T1, COX-1 (Ovis aries, UniProt P05979).
T1 construct: purchased Cayman Chemicals
T1 sequence (P05979 25-600): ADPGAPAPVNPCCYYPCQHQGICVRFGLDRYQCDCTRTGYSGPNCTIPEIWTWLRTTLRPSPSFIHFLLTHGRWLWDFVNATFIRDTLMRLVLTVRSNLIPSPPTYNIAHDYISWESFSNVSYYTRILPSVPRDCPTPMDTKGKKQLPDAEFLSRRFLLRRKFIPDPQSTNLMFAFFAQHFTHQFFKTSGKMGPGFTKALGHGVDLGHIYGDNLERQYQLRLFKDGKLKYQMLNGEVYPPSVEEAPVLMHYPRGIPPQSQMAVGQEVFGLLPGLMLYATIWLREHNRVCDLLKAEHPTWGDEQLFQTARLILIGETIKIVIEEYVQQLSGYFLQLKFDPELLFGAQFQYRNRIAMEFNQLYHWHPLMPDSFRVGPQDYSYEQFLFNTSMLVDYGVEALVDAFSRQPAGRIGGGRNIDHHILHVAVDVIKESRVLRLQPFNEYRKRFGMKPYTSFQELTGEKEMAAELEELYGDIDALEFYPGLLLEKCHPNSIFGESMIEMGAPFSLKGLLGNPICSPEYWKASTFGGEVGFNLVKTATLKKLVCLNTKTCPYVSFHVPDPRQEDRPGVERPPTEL
The experiment in a line: COX-1 activity, 14C-arachidonic acid conversion, TLC. It counts as biochemical. The conditions noted are these: for COX-1 enzyme activity (% of control values, mean ± SD): n = 3. The procedure:
COX-1 and COX-2 enzyme preparations were purchased from Cayman Chemicals. Preliminary studies established that 40 U of COX-1 or COX-2 could convert about 70% of ^14C-arachidonic acid (spec. act. 55 mCi/mmol, Ontario Isotopes, Ontario, Canada; 100,000 cpm were diluted with 0.5 μg unlabeled arachidonic acid (Cayman Chemicals)/1 ml assay) into products in vitro. Different amounts of PBT-3 (10 μg and 20 μg) were added and the conversion of AA into products was assessed during a 10 min reaction in 1 ml phosphate buffer at 37°. After extraction, products were assessed by TLC (silica gel G, ethyl acetate/acetic acid, 99/1, v/v). After development, the TLC plates were scanned for radioactive products with a Berthold TLC radiochromatogram scanner and the radioactivity was quantified by scraping zones of silica gel, placing in scintillation vials, elution with 1 ml methanol and addition of scintillation medium. Radioactivity was determined by conventional counting in a beta scintillation counter.

A short description of assay [1]: intra ocular pressure in rats, eye drops, TonoPen. It counts as in vivo, Brown Norway rats. To be noted: 0.005%, one drop daily to left eye, after 10 days' treatment, vs untreated right eye. The method, then:
Brown Norway rats (300 g) were purchased from Charles River (St. Constant, Que), and housed (two/cage) in an animal facility with free access to food and water. A light cycle of 12 h on and 12 h off was maintained. Animals were allowed to adjust for one week prior to treatment during which period they were handled daily to get them familiarized with the procedures.
Prior to treatment with test drugs, the rats' intra ocular pressures (IOP) were measured to establish baseline readings. One drop of Didocaine (0.5%, Dioptic Labs, Markham, Ont) was administered to each eye, and the pressure in each eye was measured with a TonoPen (Mentor XL, Innova Medical Ophthalmics, Toronto). The treatment protocol consisted of daily administration of one drop of one of the following substances to the left eye, the right eye being left untreated to act as a control. […] Following this, the animals were left without treatment for 2 weeks (wash-out), and then treatment was started again, the same animals receiving the same drugs. Results are calculated from at least 30 readings/test animal and presented as the mean±SEM (left eye vs right eye), with the exclusion of readings >50 and <10 which were considered spurious and artifactual readings.

Structures are written as SMILES.

On to `CCCCC/C=C\CC1CC1[C@@H](O)/C=C\C/C=C\CCCC(=O)OC` (stereo partly drawn) [PBT-3, 10(S)-hydroxy-11,12-cyclopropyl-eicosa-5Z,8Z,14Z-trienoic acid methyl ester], for which the “inhibition of PGH2-evoked aggregation” value with human platelets is given as “inhibited the second wave of aggregation”. For the same compound, the “COX-1 enzyme activity (% of control values, mean ± SD)” value at COX-1 (PBT-3 3.00 μM) is on record as 119.6 ± 14^NS % of control; on COX-1 (PBT-3 30.0 μM), 116.8 ± 11^NS % of control. For the same compound, the “inhibition of COX-1, in words” value against COX-1 (relatively large amounts of PBT-3, about 3-4 log doses greater than required to inhibit the TP receptor) is “Neither COX-1, COX-2,12-LOX nor Plase A2 was inhibited”. For the same compound, the “effect on intra ocular pressure (IOP)” value in assay [1] is given as “significant reduction in IOP, comparable to that produced by latanoprost”.
